“Also recorded” adds a separate entry of the source. Marks after values point to notes of the source that are not given here.
Key:
[1] = test system: healthy female volunteers; test: Phase 1 study: antiemetic effect of oral olanzapine doses following apomorphine challenge on day 8; format: in vivo, human; conditions: for Nausea Score 1-120 min.: apomorphine 0.05 mg/kg, scale 1=no nausea, 10=severe nausea
Protocol: Twenty-four healthy female volunteers were enrolled. Four active-treatment groups and a cohort of placebo-treated subjects were evaluated.
Subjects were administered study drug once daily for 8 days. During this period, subjects maintained a study diary of their side effects. The subject diary was used to collect on a daily basis any adverse events including an assessment of the presence and/or intensity of sedation on a numeric scale where 1=no sedation and 10=excessive sedation.
On the 8th day, subjects were administered apomorphine at a dose of 0.05 mg/kg and assessed over 6 hours. During this period, subjects were asked to record episodes of nausea on a numeric scale every 15 minutes for the duration of assessment. The intensity of nausea was captured using a 1-10 rating scale where 1=no nausea and 10=severe nausea. Emesis intensity was also captured where 1=no emesis and 10=severe emesis. Episodes of retching or emesis were collected and measured for the absolute number of retches or vomits during the collection period and documented for the time of the specific event following the administration of the apomorphine.

clinical = conditions: human, plasma, oral
[2] = oral olanzapine 2 mg a day, apomorphine challenge
[3] = oral olanzapine 4 mg a day, apomorphine challenge
[4] = oral olanzapine 6 mg a day, apomorphine challenge
[5] = oral olanzapine 8 mg a day, apomorphine challenge

Cc1cc2c(s1)Nc1ccccc1N=C2N1CCN(C)CC1 [olanzapine, 2-methyl-10-(4-methyl-1-piperazinyl)-4H-thieno-[2,3-b][1,5]benzo-diazepine]
Nausea severity scores during 0-120 min following apomorphine challenge, comparison with placebo ([1]; 2 mg olanzapine steady state dose): not significantly different than placebo
Nausea severity scores during 0-120 min following apomorphine challenge, comparison with placebo ([1]; 4 mg olanzapine steady state dose, p<0.05): significantly different than placebo
Maximum intensity of nausea, comparison between doses ([1]; 4 mg, 6 mg and 8 mg dose, apomorphine challenge): no different
Nausea severity scores during 0-120 min following apomorphine challenge, comparison with placebo ([1]; 6 mg olanzapine steady state dose, p<0.05): significantly different than placebo
Nausea severity scores during 0-120 min following apomorphine challenge, comparison with placebo ([1]; 8 mg olanzapine steady state dose): not different from the placebo control; also recorded: not significantly different than placebo
Nausea Score 1-120 min. ([1]; oral olanzapine 2 mg a day for 8 days): 6**
Nausea Score 1-120 min. (severity in words) [1, 2]: Moderate
Retching (incidence) [1, 2]: 40%
Vomiting (incidence) [1, 2]: 40%
Nausea Score 1-120 min. ([1]; oral olanzapine 4 mg a day for 8 days): 3.4 #
Nausea Score 1-120 min. (severity in words) [1, 3]: Mild
Retching (incidence) [1, 3]: 0%
Vomiting (incidence) [1, 3]: 20%
Nausea Score 1-120 min. ([1]; oral olanzapine 6 mg a day for 8 days): 3.7 #
Nausea Score 1-120 min. (severity in words) [1, 4]: Mild
Retching (incidence) [1, 4]: 0%
Vomiting (incidence) [1, 4]: 0%
Nausea Score 1-120 min. ([1]; oral olanzapine 8 mg a day for 8 days): 5**
Nausea Score 1-120 min. (severity in words) [1, 5]: Mild
Retching (incidence) [1, 5]: 20%
Vomiting (incidence) [1, 5]: 20%
concentration at 1 day (clinical; 4 mg a day): 5 ng/mL
concentration at 1 day (clinical; 6 mg a day): 8 ng/mL

Source: US12383510B2 (Starton Therapeutics, Inc., priority 2020, dated 2025)
